Measurements published in patent publication US20220315572A1, “SUBSTITUTED CYANOPYRROLIDINES WITH ACTIVITY AS USP30 INHIBITORS” (MISSION THERAPEUTICS LIMITED, priority 2019, published 2022).

Experiments:
USP30 = molecular target: T1, USP30 (Homo sapiens, UniProt Q70CQ3); assay: USP30 biochemical IC50 assay (fluorescence polarisation); details: for IC50: USP30 biochemical IC50 assay, exemplary compounds, read-out: IC50; for fold more potent against USP30 than Reference Example A: v Reference Example A; for fold more potent against USP30 than Reference Example E: v Reference Example E; for fold more potent against USP30 than Reference Example F: v Reference Example F; for fold more potent against USP30 than Reference Example G: v Reference Example G
T1 construct: purchased Boston Biochem E582
T1 sequence (Q70CQ3 57-517 limits assumed): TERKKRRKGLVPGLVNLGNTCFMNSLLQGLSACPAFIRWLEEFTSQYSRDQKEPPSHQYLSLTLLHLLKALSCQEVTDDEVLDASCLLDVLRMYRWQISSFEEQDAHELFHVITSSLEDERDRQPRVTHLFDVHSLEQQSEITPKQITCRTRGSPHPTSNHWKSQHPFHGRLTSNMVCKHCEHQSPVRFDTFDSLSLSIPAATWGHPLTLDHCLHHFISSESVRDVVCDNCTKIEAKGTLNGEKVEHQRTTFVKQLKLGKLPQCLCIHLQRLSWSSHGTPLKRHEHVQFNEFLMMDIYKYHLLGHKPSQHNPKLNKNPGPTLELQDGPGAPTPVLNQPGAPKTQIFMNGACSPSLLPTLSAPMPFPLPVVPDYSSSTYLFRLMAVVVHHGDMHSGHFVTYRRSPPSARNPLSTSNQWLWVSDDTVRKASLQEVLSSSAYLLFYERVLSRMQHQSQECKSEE
Procedure: Dilution plates were prepared at 21 times the final concentration (2100 μM for a final concentration of 100 μM) in 50% DMSO in a 96-well polypropylene V-bottom plate (Greiner #651201). A typical 8-point dilution series would be 100, 30, 10, 3, 1, 0.3, 0.1, 0.03 μM final. Reactions were performed in duplicate in black 384 well plates (small volume, Greiner 784076) in a final reaction volume of 21 μl. Either […] of 50% DMSO or diluted compound was added to the plate. USP30 (Boston Biochem #E582) was diluted in reaction buffer (40 mM Tris, pH 7.5, 0.005% Tween 20, 0.5 mg/ml BSA, 5 mM beta-mercaptoethanol) to achieve a final assay concentration of 4 nM, and 10 μl of diluted USP30 was added to the compound. Enzyme and compound were incubated for 30 min at room temp. Reactions were initiated by the addition of 50 nM of TAMRA labelled peptide linked to ubiquitin via an iso-peptide bond as fluorescence polarisation substrate. Reactions were read immediately after addition of substrate and following a 2-hour incubation at room temperature. Readings were performed on a Pherastar Plus (BMG Labtech). λ Excitation 540 nm; λ Emission 590 nm.

Cathepsin B = Cathepsin B (Homo sapiens, UniProt P07858); assay: Cathepsin IC50, cathepsin B; type: biochemical
Cathepsin K = molecular target: T2, Cathepsin K (Homo sapiens, UniProt P43235); assay: Cathepsin IC50, cathepsin K; type: biochemical
T2 sequence (P43235 115-329): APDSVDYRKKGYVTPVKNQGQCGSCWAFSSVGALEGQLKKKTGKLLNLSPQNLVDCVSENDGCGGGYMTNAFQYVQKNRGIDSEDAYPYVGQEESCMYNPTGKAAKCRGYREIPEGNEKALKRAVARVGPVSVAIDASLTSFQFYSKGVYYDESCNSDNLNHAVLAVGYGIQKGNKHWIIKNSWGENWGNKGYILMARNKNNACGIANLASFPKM

Cathepsin L = Cathepsin L (Homo sapiens, UniProt P07711); assay: Cathepsin IC50, cathepsin L; type: biochemical
Cathepsin L, sequence (P07711 114-333, species assumed): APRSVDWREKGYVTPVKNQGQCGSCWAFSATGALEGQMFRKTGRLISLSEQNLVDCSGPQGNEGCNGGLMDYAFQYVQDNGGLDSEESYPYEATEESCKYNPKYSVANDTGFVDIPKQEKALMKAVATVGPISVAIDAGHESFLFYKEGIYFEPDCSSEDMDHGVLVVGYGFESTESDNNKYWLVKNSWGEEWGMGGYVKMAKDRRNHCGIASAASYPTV

Cathepsin S = Cathepsin S (Homo sapiens, UniProt P25774); assay: Cathepsin IC50, cathepsin S; type: biochemical
Cathepsin S, sequence (P25774 115-331, species assumed): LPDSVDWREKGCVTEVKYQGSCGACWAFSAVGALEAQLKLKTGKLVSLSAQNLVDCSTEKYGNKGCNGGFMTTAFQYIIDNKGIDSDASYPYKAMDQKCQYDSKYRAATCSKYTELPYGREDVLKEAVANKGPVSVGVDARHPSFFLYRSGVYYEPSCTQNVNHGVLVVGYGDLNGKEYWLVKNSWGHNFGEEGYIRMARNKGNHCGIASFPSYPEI

Cathepsin V = Cathepsin V (Homo sapiens, UniProt O60911); assay: Cathepsin IC50, cathepsin V; type: biochemical
Cathepsin V, sequence (O60911 114-334, species assumed): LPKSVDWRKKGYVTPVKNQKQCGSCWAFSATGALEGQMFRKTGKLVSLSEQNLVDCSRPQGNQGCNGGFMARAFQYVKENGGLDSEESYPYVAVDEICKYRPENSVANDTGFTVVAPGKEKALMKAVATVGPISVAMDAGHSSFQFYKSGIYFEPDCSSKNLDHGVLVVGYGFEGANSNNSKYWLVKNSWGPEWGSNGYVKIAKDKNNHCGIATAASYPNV

Endogenous USP30 = molecular target: T3, Endogenous USP30 (Homo sapiens, UniProt Q70CQ3); assay: USP30 endogenous cellular target engagement western blot assay (Cell TE WB); type: cell-based; details: Hela cells stably overexpressing YFP-Parkin, 1 hour
T3 construct: USP30 endogenous cellular target engagement western blot (WB) assay; endogenous in cells; host or cells: HeLa stably overexpressing YFP-Parkin
T3 sequence (Q70CQ3 1-517): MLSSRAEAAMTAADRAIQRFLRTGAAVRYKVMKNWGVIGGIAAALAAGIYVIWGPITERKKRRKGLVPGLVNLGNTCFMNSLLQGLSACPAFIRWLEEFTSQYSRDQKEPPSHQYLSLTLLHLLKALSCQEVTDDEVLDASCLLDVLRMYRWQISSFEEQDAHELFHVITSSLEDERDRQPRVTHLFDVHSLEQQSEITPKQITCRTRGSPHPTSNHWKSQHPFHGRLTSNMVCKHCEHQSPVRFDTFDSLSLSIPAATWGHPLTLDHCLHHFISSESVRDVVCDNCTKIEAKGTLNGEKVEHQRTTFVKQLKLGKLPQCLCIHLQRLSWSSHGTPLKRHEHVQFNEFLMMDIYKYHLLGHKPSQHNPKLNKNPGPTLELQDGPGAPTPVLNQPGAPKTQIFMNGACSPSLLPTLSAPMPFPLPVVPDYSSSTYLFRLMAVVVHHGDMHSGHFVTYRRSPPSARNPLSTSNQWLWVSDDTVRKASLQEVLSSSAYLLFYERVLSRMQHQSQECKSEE
Procedure: Hela cells stably overexpressing YFP-Parkin were seeded into 6 well dishes. Once adhered, cells were treated with appropriate concentrations of test compounds or vehicle control for 1 hour at 37° C., 5% CO2. Whole cell lysates were prepared by scraping the cells into cold PBS, centrifuging and lysing in lysis buffer (50 mM Tris-base, pH 7.5, 50 mM NaCl, 1% NP-40/Igepal CA-630, 2 mM MgCl2, 10% Glycerol, 5 mM beta-mercaptoethanol, cOmplete mini tablets EDTA free (Roche), PhosStop tablets (Roche)) for 10 mins. The equivalent of 20 μg of protein from the cleared cell lysate was incubated with a final conc of 2.5 μM HA-Ahx-Ahx-Ub-VME probe at room temperature. The reaction was stopped by addition of 5×SDS sample loading buffer and proteins separated by SDS PAGE and western blotting. USP30 was detected using an anti-USP30 Sheep S746D antibody (MRC PPU Reagents and Services) and a rabbit anti sheep secondary IgG (H+L) horseradish peroxidase conjugated (Thermo #31480) and visualised using ECL reagent (GE #RPN2109) on a GE LAS4000 imager. Target engagement was measured by quantitation of the bands corresponding to USP30 and USP30 bound to the Ub-VME probe and expression of this proportion compared to vehicle treated control.
Cell TE WB: USP30 endogenous cellular target engagement western blot (WB) assay. Assays the activity of compounds against USP30 in cells using an irreversible activity probe to monitor USP30 activity.

fold more potent against USP30 than Reference Example B (USP30; biochemical assay, v Reference Example B) [fold] | fold more potent against USP30 than Reference Example C (USP30; biochemical assay, v Reference Example C) [fold] | fold more potent against USP30 than Reference Example D (USP30; biochemical assay, v Reference Example D) [fold] | Structure (SMILES) | IC50 (USP30) [µM] | fold more potent against USP30 than Reference Example A (USP30; biochemical assay) [fold] | fold more potent against USP30 than Reference Example E (USP30; biochemical assay) [fold] | fold more potent against USP30 than Reference Example F (USP30; biochemical assay) [fold] | fold more potent against USP30 than Reference Example G (USP30; biochemical assay) [fold] | IC50 (Cathepsin B) [µM] | IC50 (Cathepsin K) [µM] | IC50 (Cathepsin L) [µM] | fold more selective for USP30 over cathepsin L than A (Cathepsin L; v Reference Example A) [fold] | fold more selective for USP30 over cathepsin L than B (Cathepsin L; v Reference Example B) [fold] | fold more selective for USP30 over cathepsin L than C (Cathepsin L; v Reference Example C) [fold] | fold more selective for USP30 over cathepsin L than D (Cathepsin L; v Reference Example D) [fold] | fold more selective for USP30 over cathepsin L than E (Cathepsin L; v Reference Example E) [fold] | fold more selective for USP30 over cathepsin L than F (Cathepsin L; v Reference Example F) [fold] | IC50 (Cathepsin S) [µM] | IC50 (Cathepsin V) [µM] | EC50 (Endogenous USP30) [µM]
 |  |  | C[C@@H]1C[C@@H](NC(=O)c2nnc(-c3cccc(C#N)c3)o2)CN1C#N [Example 1, N-((3R,5R)-1-Cyano-5-methylpyrrolidin-3-yl)-5-(3-cyanophenyl)-1,3,4-oxadiazole-2-carboxamide] | 0.029 | 2.4 | 10.7 | 24 | 152 | 154 | 26.2 | 30.9 | 27 | 59 | 18 | 19 | 333 | 3135 | > 300 | 176 | 0.064
3.4 | 2 | 3.2 | N#Cc1cccc(-c2nnc(C(=O)N[C@@H]3C[C@@H](CF)N(C#N)C3)o2)c1 [Example 3, N-((3R,5S)-1-Cyano-5-(fluoromethyl)pyrrolidin-3-yl)-5-(3-cyanophenyl)-1,3,4-oxadiazole-2-carboxamide] | 0.013 | 5.4 | 24 | 54 | 338 | 29.4 | 18.8 | 9.9 |  |  |  |  |  |  | 256 | 42.9 | 0.037
